What all share (experiment): KinomeScan profiling
Common to all, as to format: binding

The target in experiment [1] is T1, ULK3 (Homo sapiens, UniProt Q6PHR2).
T1 sequence (Q6PHR2 1-472): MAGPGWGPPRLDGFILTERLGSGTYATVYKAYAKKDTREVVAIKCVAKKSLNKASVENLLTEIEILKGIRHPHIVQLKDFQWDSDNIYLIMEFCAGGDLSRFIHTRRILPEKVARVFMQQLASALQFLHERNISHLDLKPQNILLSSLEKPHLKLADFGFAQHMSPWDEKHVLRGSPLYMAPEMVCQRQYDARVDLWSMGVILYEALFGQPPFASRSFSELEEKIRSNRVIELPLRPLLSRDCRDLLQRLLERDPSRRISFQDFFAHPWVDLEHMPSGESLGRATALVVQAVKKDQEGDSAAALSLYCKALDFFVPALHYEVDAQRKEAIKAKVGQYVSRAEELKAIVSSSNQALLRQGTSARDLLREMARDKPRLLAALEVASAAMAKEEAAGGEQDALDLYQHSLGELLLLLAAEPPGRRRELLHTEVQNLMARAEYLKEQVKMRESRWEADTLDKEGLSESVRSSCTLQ
To be noted: ULK3, 1 μM; read-out: % control. Put shortly:
(§1)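 Test agents were profiled at a single concentration of 1 μM (DMSO vehicle) on a near-complete set of 468 kinases. Signal is reported relative to vehicle (100%) and a fully displacing control (0%).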

Experiment [2] deals with T2, PIK3CA(Q546K) (Homo sapiens, UniProt P42336, Q546K).
T2 construct: purchased KinomeScan® (panel service)
Particulars: read-out: % control. Put shortly:
as §1

The target in experiment [3] is TRPM6 (Homo sapiens, UniProt Q9BX84). Particulars: TRPM6, 1 μM; read-out: % control. Put shortly:
as §1

The target of experiment [4] is T3, MUSK (Homo sapiens, UniProt O15146).
T3 sequence (O15146 24-869): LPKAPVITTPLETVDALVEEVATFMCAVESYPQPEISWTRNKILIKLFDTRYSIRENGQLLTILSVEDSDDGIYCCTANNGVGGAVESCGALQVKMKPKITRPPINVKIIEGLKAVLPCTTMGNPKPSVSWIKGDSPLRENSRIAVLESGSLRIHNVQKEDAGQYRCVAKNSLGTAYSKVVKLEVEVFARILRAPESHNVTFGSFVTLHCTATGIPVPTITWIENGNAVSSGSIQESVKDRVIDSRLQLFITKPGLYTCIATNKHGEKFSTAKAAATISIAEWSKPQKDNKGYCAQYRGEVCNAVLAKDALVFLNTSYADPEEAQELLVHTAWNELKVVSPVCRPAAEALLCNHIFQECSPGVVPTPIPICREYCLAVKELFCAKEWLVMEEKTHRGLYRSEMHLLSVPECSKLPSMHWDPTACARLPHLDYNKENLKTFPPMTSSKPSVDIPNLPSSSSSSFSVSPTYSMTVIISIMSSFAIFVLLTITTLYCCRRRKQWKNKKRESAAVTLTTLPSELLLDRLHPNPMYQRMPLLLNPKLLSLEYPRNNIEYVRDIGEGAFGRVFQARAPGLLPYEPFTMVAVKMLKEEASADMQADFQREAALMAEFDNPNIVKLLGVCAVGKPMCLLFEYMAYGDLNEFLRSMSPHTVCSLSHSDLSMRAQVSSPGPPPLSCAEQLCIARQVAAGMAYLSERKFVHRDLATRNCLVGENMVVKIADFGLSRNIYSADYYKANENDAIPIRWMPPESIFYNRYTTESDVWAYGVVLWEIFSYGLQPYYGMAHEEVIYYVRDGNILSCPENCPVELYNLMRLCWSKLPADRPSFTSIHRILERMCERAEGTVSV
Particulars: read-out: % control. Put shortly: as §1

Experiment [5] concerns the target GRK4 (Homo sapiens, UniProt P32298). To be noted: GRK4, 1 μM; read-out: % control. Put shortly:
as §1

For experiment [6], the target named is DAPK1 (Homo sapiens, UniProt P53355). Particulars: DAPK1, 1 μM; read-out: % control. An outline of the steps: as §1
Experiment [7] concerns the target T4, PIK3CA(I800L) (Homo sapiens, UniProt P42336, I800L).
T4 construct: purchased KinomeScan® (panel service)
To be noted: read-out: % control. Put shortly: as §1

In experiment [8] the target is T5, IRAK1 (Homo sapiens, UniProt P51617).
T5 construct: purchased KinomeScan®
To be noted: IRAK1, 1 μM; read-out: % control. Put shortly:
as §1

Experiment [9] addresses CSNK1G3 (Homo sapiens, UniProt Q9Y6M4). To be noted: CSNK1G3, 1 μM; read-out: % control. An outline of the steps:
as §1

For experiment [10], the target named is MST4 (Homo sapiens, UniProt Q9P289). Particulars: MST4, 1 μM; read-out: % control. Put shortly:
as §1

Sequence of GRK4 (P32298 whole entry): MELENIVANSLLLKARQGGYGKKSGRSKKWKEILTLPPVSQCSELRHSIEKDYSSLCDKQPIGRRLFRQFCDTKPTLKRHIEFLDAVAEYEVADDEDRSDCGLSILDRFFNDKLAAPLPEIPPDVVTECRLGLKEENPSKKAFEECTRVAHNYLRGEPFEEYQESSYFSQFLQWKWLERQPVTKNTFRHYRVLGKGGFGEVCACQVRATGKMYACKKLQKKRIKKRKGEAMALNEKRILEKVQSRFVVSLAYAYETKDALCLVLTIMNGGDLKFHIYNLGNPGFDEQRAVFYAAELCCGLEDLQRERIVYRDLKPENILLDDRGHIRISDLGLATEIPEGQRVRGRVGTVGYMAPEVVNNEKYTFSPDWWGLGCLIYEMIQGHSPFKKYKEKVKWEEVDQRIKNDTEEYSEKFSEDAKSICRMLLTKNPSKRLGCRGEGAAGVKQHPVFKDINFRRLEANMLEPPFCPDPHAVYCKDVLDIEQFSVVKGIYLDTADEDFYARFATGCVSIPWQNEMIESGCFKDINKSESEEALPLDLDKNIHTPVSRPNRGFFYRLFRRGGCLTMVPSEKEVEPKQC
Sequence of TRPM6 (Q9BX84 whole entry): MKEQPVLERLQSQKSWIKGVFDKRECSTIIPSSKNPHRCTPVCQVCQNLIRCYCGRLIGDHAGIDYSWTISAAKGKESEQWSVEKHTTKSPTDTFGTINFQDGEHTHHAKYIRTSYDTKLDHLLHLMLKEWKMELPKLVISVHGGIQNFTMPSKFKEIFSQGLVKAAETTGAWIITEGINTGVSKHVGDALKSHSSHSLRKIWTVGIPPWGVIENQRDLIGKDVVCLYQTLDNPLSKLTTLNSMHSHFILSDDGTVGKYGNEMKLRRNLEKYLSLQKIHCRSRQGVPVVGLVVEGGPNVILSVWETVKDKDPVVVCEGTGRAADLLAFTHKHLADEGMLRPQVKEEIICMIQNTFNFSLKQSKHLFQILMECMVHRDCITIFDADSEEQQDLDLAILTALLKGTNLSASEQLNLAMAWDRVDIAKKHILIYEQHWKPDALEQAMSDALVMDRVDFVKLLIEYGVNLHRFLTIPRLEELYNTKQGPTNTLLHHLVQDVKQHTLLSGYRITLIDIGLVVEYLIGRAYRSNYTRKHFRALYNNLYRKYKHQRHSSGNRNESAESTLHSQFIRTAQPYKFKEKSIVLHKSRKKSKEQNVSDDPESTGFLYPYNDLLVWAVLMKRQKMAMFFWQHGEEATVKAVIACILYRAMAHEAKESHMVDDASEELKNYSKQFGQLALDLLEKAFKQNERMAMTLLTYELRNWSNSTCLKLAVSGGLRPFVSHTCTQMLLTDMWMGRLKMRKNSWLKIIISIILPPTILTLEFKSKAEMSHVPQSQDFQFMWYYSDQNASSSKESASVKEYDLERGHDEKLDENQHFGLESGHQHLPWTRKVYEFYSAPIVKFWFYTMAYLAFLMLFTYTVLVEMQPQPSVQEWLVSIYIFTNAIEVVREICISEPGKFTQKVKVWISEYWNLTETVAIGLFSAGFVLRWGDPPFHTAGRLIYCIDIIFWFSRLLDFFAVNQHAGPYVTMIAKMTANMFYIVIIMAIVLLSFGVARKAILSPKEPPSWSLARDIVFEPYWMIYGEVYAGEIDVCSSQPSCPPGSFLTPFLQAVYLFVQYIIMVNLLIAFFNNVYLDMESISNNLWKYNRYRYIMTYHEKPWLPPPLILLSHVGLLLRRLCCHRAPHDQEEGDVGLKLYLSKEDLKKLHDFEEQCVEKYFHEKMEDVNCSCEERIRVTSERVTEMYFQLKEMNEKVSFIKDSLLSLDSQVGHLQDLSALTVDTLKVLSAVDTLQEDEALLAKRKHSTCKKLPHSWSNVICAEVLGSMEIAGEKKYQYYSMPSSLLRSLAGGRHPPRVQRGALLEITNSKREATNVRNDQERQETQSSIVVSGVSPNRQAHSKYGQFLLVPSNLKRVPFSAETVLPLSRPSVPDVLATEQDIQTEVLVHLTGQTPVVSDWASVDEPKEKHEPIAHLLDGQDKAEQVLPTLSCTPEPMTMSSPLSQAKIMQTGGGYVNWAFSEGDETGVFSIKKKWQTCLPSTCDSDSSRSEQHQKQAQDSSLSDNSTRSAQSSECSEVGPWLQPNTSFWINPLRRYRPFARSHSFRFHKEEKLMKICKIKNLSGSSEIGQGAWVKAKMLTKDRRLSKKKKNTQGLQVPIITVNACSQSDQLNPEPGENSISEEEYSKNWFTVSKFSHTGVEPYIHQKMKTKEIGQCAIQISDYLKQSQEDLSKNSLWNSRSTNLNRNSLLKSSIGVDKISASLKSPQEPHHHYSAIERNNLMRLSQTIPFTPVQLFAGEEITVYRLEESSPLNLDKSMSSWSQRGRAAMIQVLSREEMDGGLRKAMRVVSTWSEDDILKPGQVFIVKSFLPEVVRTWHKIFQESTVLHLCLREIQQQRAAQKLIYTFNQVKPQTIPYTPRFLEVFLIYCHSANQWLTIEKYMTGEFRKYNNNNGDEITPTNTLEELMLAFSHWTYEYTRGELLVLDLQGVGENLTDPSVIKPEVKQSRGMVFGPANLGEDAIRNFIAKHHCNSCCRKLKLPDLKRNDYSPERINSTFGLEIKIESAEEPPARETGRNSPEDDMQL
T5 sequence (P51617 whole entry): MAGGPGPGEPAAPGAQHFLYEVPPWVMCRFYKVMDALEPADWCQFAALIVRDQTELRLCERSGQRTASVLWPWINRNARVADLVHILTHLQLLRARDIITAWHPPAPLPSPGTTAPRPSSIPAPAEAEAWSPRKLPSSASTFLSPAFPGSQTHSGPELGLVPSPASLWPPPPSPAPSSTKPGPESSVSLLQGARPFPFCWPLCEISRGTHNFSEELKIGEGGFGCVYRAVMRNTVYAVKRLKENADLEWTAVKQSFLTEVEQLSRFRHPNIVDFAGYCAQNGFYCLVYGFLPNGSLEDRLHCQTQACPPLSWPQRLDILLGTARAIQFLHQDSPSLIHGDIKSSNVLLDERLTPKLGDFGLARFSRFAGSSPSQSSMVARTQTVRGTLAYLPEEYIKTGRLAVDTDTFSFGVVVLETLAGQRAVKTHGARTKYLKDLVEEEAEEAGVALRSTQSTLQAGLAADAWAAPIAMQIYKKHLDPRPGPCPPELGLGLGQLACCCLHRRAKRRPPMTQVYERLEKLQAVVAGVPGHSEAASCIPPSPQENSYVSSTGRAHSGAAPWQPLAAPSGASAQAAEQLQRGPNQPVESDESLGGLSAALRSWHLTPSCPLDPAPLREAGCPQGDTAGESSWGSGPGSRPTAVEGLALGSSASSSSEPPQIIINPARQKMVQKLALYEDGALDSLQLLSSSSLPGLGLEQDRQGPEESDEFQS
T2 sequence (P42336 whole entry Q546K): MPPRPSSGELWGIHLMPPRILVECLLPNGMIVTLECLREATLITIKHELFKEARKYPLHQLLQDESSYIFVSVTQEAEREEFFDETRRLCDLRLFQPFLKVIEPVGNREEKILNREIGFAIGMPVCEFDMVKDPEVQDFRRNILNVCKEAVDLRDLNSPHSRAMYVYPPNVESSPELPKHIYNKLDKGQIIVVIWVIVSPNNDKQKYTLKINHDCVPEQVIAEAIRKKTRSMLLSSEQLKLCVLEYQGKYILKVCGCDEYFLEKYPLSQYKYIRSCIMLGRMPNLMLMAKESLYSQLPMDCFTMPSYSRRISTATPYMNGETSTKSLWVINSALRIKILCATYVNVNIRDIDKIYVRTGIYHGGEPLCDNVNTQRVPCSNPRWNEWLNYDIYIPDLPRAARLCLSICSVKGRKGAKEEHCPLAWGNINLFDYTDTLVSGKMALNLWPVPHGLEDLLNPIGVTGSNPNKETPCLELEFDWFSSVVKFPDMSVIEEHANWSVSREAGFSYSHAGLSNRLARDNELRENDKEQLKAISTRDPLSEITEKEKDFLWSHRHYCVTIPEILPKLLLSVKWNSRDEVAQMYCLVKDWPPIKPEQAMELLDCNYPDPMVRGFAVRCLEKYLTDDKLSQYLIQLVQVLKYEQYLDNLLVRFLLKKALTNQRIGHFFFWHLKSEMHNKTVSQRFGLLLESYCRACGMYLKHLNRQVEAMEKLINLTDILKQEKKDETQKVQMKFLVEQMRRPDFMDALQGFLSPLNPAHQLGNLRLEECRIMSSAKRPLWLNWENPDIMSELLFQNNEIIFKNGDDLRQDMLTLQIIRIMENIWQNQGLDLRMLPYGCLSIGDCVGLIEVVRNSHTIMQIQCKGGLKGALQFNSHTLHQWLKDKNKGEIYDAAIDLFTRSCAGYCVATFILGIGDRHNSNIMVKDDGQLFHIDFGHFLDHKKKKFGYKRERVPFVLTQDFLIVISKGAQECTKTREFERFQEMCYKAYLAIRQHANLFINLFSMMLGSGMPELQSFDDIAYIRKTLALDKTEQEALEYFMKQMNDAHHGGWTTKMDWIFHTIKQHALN
T4 sequence (P42336 whole entry I800L): as the sequence (P42336 whole entry Q546K) above, with K546Q, I800L counted along it
Sequence of MST4 (Q9P289 whole entry): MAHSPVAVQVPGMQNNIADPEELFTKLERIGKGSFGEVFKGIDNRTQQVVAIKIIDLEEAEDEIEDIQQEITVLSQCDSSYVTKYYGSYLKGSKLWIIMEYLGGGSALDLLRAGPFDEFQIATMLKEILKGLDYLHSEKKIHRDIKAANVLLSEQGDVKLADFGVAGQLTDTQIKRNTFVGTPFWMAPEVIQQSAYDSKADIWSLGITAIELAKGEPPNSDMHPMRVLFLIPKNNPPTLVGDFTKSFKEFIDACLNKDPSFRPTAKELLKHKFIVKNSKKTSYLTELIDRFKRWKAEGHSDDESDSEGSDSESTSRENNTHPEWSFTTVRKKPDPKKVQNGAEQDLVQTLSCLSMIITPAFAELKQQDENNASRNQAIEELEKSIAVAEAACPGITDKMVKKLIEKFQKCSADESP

Turning to `CNc1c(-c2ccc(C(=O)N3CCC(N4CCOCC4)CC3)cc2)cnc2[nH]cc(Cl)c12` [Compound 96, (4-(3-chloro-4-(methylamino)-1H-pyrrolo[2,3-b]pyridin-5-yl)phenyl)(4-morpholinopiperidin-1-yl)methanone], the remaining binding at 1 µM in experiment [1] amounted to 10%; in experiment [2], 100%; in experiment [3], 82%; in [4], 100%; in experiment [5], 28%; in [6], 74%. The remaining binding at 1 µM was found to be 64% in [7], 41% in experiment [8], 16% in experiment [9] and 99% in [10].
In the case of `O=C(c1ccc(-c2cnc3[nH]cc(Cl)c3c2NC2CCCC2)cc1)N1CCC(N2CCOCC2)CC1` [Compound 101, (4-(3-chloro-4-(cyclopentylamino)-1H-pyrrolo[2,3-b]pyridin-5-yl)phenyl)(4-morpholinopiperidin-1-yl)methanone], the remaining binding at 1 µM in [1] is 92%; in experiment [2] it was 93%; in [3], 100%; in [4], 67%; in [5], 14%; in experiment [6], 80%. The remaining binding at 1 µM in [7] is 80%; in experiment [8] it was 100%; in experiment [9], 93%; in experiment [10], 100%.
For the molecule `CNc1c(-c2cnn([C@H]3CCN(C(C)=O)C[C@@H]3F)c2)cnc2[nH]cc(Cl)c12` [Compound 77, 1-((3S,4S)-4-(4-(3-chloro-4-(methylamino)-1H-pyrrolo[2,3-b]pyridin-5-yl)-1H-pyrazol-1-yl)-3-fluoropiperidin-1-yl)ethan-1-one], the remaining binding at 1 µM in experiment [1] was determined as 5.5%; in [2] it was 100%; in experiment [3], 89%; in experiment [4], 100%; in experiment [5], 21%; in experiment [6], 73%. Moreover, the remaining binding at 1 µM in experiment [7] came to 566%; in [8], 33%; in [9], 24%; in experiment [10] it was 67%.
